What follows are compounds tested against PKM2 (Homo sapiens, UniProt P14618) (assay: PKM2 Assay (activation, LDH-coupled, absorbance at 340 nm)). Details: Table 4.
Chain of PKM2 (P14618 whole entry): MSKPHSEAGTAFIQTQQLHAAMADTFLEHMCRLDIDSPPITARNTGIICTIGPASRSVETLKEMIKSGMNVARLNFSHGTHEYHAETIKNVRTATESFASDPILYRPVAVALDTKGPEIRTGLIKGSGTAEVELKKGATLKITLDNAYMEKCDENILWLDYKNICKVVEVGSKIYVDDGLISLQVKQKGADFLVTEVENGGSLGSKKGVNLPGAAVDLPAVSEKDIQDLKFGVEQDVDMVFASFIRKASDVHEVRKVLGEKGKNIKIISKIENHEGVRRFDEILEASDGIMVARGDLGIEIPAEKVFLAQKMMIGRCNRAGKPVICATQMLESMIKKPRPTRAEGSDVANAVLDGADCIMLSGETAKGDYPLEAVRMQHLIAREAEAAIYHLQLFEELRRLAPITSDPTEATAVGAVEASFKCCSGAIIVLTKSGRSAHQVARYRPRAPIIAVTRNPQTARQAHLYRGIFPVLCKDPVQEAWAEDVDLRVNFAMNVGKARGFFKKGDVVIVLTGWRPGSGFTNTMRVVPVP
Type: biochemical
Method in brief: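 Read-out was the 340 nm NADH absorbance change at 25 °C in an LDH-coupled system (PEP 0.15 mM, NADH 180 μM, ADP 0.7 mM to initiate) in 50 mM Tris pH 7.5, 100 mM KCl, 5 mM MgCl2. PKM2 at 50 ng/well was first preincubated with compound for 30 min at 4 °C. Activation given as AC50.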
With C[C@H]1CN(C[C@H]2CCCO2)CCN1C(=O)c1ccc(NS(=O)(=O)c2cccc3cccnc23)cc1 (stereo in doubt) [Compound 211, N-(4-((2S)-2R-methyl-4-((tetrahydrofuran-2-yl)methyl)piperazine-1-carbonyl)phenyl)quinoline-8-sulfonamide] the AC50 was under 100 nM. CC(c1cc(F)cc(F)c1)N1CCN(C(=O)c2ccc(NS(=O)(=O)c3cccc4cccnc34)cc2)[C@@H](C)C1 (some centres unmarked) [Compound 170] gave an AC50 of 100 to 500 nM. In the case of C[C@@H]1CN(Cc2cc(F)cc(F)c2)CCN1C(=O)c1ccc(NS(=O)(=O)c2cccc3cccnc23)cc1 [Compound 119, (R)—N-(4-(4-(3,5-difluorobenzyl)-2-methylpiperazine-1-carbonyl)phenyl)quinoline-8-sulfonamide], the AC50 is reported as under 100 nM. Compound CC(c1ccc(F)cc1F)N1CCN(C(=O)c2ccc(NS(=O)(=O)c3cccc4cccnc34)cc2)[C@@H](C)C1 (some centres unmarked) [Compound 169] has an AC50 of 100 to 500 nM. In the case of C[C@@H]1CN(CC2CCC2)CCN1C(=O)c1ccc(NS(=O)(=O)c2cccc3cccnc23)cc1 [Compound 206, (R)—N-(4-(4-(cyclobutylmethyl)-2-methylpiperazine-1-carbonyl)phenyl)quinoline-8-sulfonamide], the AC50 is reported as under 100 nM. In the case of CC(c1c(F)cc(F)cc1F)N1CCN(C(=O)c2ccc(NS(=O)(=O)c3cccc4cccnc34)cc2)[C@@H](C)C1 (some centres unmarked) [Compound 172], the AC50 is reported as 100 to 500 nM. With CC1CN(CC2CCOC2)CC(C)N1C(=O)c1ccc(NS(=O)(=O)c2cccc3cccnc23)cc1 (centres unmarked) [Compound 204, N-(4-(2,6-dimethyl-4-((tetrahydrofuran-3-yl)methyl)piperazine-1-carbonyl)phenyl)quinoline-8-sulfonamide] the AC50 was 500 to 1000 nM. O=C(c1ccc(NS(=O)(=O)c2cccc3cccnc23)cc1)N1CCN(Cc2cc(F)cc(F)c2)C[C@@H]1c1ccccc1 [Compound 181] showed an AC50 of 100 to 500 nM. Work on O=C(c1ccc(NS(=O)(=O)c2cccc3cccnc23)cc1)N1CC2CCC(C1)N2CC1CC1 [Compound 221, N-(4-(8-(cyclopropylmethyl)-3,8-diazabicyclo[3.2.1]octane-3-carbonyl)phenyl)quinoline-8-sulfonamide] yielded an AC50 of under 100 nM. With C[C@H]1CN(Cc2ccc(F)c(F)c2F)CCN1C(=O)c1ccc(NS(=O)(=O)c2cccc3cccnc23)cc1 [Compound 154, (S)—N-(4-(2-methyl-4-(2,3,4-trifluorobenzyl)piperazine-1-carbonyl)phenyl)quinoline-8-sulfonamide] the AC50 was 100 to 500 nM. Compound C[C@@H]1CN(CC2CCCC2)CCN1C(=O)c1ccc(NS(=O)(=O)c2cccc3cccnc23)cc1 [Compound 114, (R)—N-(4-(4-(cyclopentylmethyl)-2-methylpiperazine-1-carbonyl)phenyl)quinoline-8-sulfonamide] has an AC50 of under 100 nM. C[C@H]1CN(C(=O)c2ccccn2)CCN1C(=O)c1ccc(NS(=O)(=O)c2cccc3cccnc23)cc1 [Compound 101] showed an AC50 of 100 to 500 nM. Work on C[C@H]1CN(CC2CCCCO2)CCN1C(=O)c1ccc(NS(=O)(=O)c2cccc3cccnc23)cc1 (stereo partly drawn) [Compound 156, N-(4-((2S)-2-methyl-4-((tetrahydro-2H-pyran-2-yl)methyl)piperazine-1-carbonyl)phenyl)quinoline-8-sulfonamide] yielded an AC50 of 500 to 1000 nM. In the case of C[C@@H]1CN(C(=O)OCC2CCCO2)CCN1C(=O)c1ccc(NS(=O)(=O)c2cccc3cccnc23)cc1 (stereo partly drawn) [Compound 128, (3R)-(Tetrahydrofuran-2-yl)methyl3-methyl-4-(4-(quinoline-8-sulfonamido)benzoyl)piperazine-1-carboxylate], the AC50 is reported as under 100 nM. In the case of CC[C@H]1CN(Cc2cc(F)cc(F)c2)CCN1C(=O)c1ccc(NS(=O)(=O)c2cccc3cccnc23)cc1 [Compound 136, (S)—N-(4-(4-(3,5-difluorobenzyl)-2-ethylpiperazine-1-carbonyl)phenyl)quinoline-8-sulfonamide], the AC50 is reported as 100 to 500 nM.

Same assay, conditions: Table 5
With O=C(c1ccc(NS(=O)(=O)c2cccc3cccnc23)cn1)N1CCN(Cc2ccc(F)cc2)CC1 [Compound 416, N-(6-(4-(4-fluorobenzyl)piperazine-1-carbonyl)pyridin-3-yl)quinoline-8-sulfonamide] the AC50 was 100 to 500 nM. COc1cc(C(=O)N2CCN(C(=O)c3cscn3)CC2)ccc1NS(=O)(=O)c1cccc2cccnc12 [Compound 322, N-(2-methoxy-4-(4-(thiazole-4-carbonyl)piperazine-1-carbonyl)phenyl)quinoline-8-sulfonamide] was tested, and the AC50 was 100 to 500 nM. Work on Cc1cnc(C(=O)N2CCN(C(=O)c3ccc(NS(=O)(=O)c4cccc5cccnc45)c(OC(F)(F)F)c3)CC2)cn1 [Compound 325] yielded an AC50 of 1000 to 20000 nM. CC(C)(c1ccccc1F)N1CCN(C(=O)c2ccc(NS(=O)(=O)c3cccc4cccnc34)cc2)CC1 [Compound 409, N-(4-(4-(2-(2-fluorophenyl)propan-2-yl)piperazine-1-carbonyl)phenyl)quinoline-8-sulfonamide] showed an AC50 of 100 to 500 nM. O=C(c1ccc(NS(=O)(=O)c2cccc3cccnc23)c(C(F)(F)F)c1)N1CCN(Cc2ccncc2)CC1 [Compound 328, N-(4-(4-(pyridin-4-ylmethyl)piperazine-1-carbonyl)-2-(trifluoromethyl)phenyl)quinoline-8-sulfonamide] showed an AC50 of 1000 to 20000 nM. In the case of O=C(c1ccc(NS(=O)(=O)c2cccc3cccnc23)cc1F)N1CCN(Cc2cc(F)cc(F)c2)CC1 [Compound 421, N-(4-(4-(3,5-difluorobenzyl)piperazine-1-carbonyl)-3-fluorophenyl)quinoline-8-sulfonamide], the AC50 is reported as under 100 nM. Compound O=C(c1ccc(NS(=O)(=O)c2cccc3cccnc23)c(OC(F)(F)F)c1)N1CCN(C(=O)c2cocn2)CC1 [Compound 327] has an AC50 of 500 to 1000 nM. For O=C(c1ccc(NS(=O)(=O)c2cccc3cccnc23)c(OC(F)(F)F)c1)N1CCN(Cc2cc(Cl)cc(Cl)c2)CC1 [Compound 391, N-(4-(4-(3,5-dichlorobenzyl)piperazine-1-carbonyl)-2-(trifluoromethoxy)phenyl)quinoline-8-sulfonamide], the AC50 was 100 to 500 nM. With O=C(c1ccc(NS(=O)(=O)c2cccc3cccnc23)cc1Cl)N1CCN(Cc2cc(F)c(F)c(F)c2)CC1 [Compound 434, N-(3-chloro-4-(4-(3,4,5-trifluorobenzyl)piperazine-1-carbonyl)phenyl)quinoline-8-sulfonamide] the AC50 was under 100 nM. With O=C(c1ccc(NS(=O)(=O)c2cccc3cccnc23)cc1)N1CCN(C2(c3ccccc3)CCC2)CC1 [Compound 408, N-(4-(4-(1-phenylcyclobutyl)piperazine-1-carbonyl)phenyl)quinoline-8-sulfonamide] the AC50 was under 100 nM. For COc1cccc(OC)c1CN1CCN(C(=O)c2ccc(NS(=O)(=O)c3cccc4cccnc34)c(OC(F)(F)F)c2)CC1 [Compound 392, N-(4-(4-(2,6-dimethoxybenzyl)piperazine-1-carbonyl)-2-(trifluoromethoxy)phenyl)quinoline-8-sulfonamide], the AC50 was 500 to 1000 nM. With O=C(Oc1ccccn1)N1CCN(C(=O)c2ccc(NS(=O)(=O)c3cccc4cccnc34)c(OC(F)(F)F)c2)CC1 [Compound 344, Pyridin-2-yl4-(4-(quinoline-8-sulfonamido)-3-(trifluoromethoxy)benzoyl)piperazine-1-carboxylate] the AC50 was 500 to 1000 nM. O=C(c1ccc(NS(=O)(=O)c2cccc3cccnc23)cc1)N1CCN(C(=O)C2CCCO2)CC1 (centres unmarked) [Compound 443, N-(4-(4-(tetrahydrofuran-2-carbonyl)piperazine-1-carbonyl)phenyl)quinoline-8-sulfonamide] gave an AC50 of 500 to 1000 nM. In the case of O=C(c1ccc(NS(=O)(=O)c2cccc3cccnc23)c(OC(F)(F)F)c1)N1CCN(C2(c3ccccc3)CC2)CC1 [Compound 353, N-(4-(4-(1-phenylcyclopropyl)piperazine-1-carbonyl)-2-(trifluoromethoxy)phenyl)quinoline-8-sulfonamide], the AC50 is reported as 500 to 1000 nM. CC(c1cc(F)c(F)cc1F)N1CCN(C(=O)c2ccc(NS(=O)(=O)c3cccc4cccnc34)cc2)CC1 (centres unmarked) [Compound 395, N-(4-(4-(1-(2,4,5-trifluorophenyl)ethyl)piperazine-1-carbonyl)phenyl)quinoline-8-sulfonamide] gave an AC50 of under 100 nM. COc1cc(C(=O)N2CCN(C(=O)c3csnn3)CC2)ccc1NS(=O)(=O)c1cccc2cccnc12 [Compound 321, N-(4-(4-(1,2,3-thiadiazole-4-carbonyl)piperazine-1-carbonyl)-2-methoxyphenyl)quinoline-8-sulfonamide] showed an AC50 of 100 to 500 nM. In the case of CC(C)(c1ccccc1)N1CCN(C(=O)c2ccc(NS(=O)(=O)c3cccc4cccnc34)c(OC(F)(F)F)c2)CC1 [Compound 340, N-(4-(4-(2-phenylpropan-2-yl)piperazine-1-carbonyl)-2-(trifluoromethoxy)phenyl)quinoline-8-sulfonamide], the AC50 is reported as 100 to 500 nM. Compound CC(c1ccc(F)c(Cl)c1)N1CCN(C(=O)c2ccc(NS(=O)(=O)c3cccc4cccnc34)cc2)CC1 (centres unmarked) [Compound 332, N-(4-(4-(1-(3-chloro-4-fluorophenyl)ethyl)piperazine-1-carbonyl)phenyl)quinoline-8-sulfonamide] has an AC50 of under 100 nM. O=C(c1ccc(NS(=O)(=O)c2cccc3cccnc23)cc1)N1CCN(CC2CCC2)CC1 [Compound 419, N-(4-(4-(cyclobutylmethyl)piperazine-1-carbonyl)phenyl)quinoline-8-sulfonamide] was tested, and the AC50 was under 100 nM. CC(C)(c1cc(F)cc(F)c1)N1CCN(C(=O)c2ccc(NS(=O)(=O)c3cccc4cccnc34)cc2)CC1 [Compound 410] showed an AC50 of under 100 nM. For CC(c1ccc(F)c(F)c1F)N1CCN(C(=O)c2ccc(NS(=O)(=O)c3cccc4cccnc34)cc2)CC1 (centres unmarked) [Compound 403, N-(4-(4-(1-(2,3,4-trifluorophenyl)ethyl)piperazine-1-carbonyl)phenyl)quinoline-8-sulfonamide], the AC50 was under 100 nM. Compound O=C(c1ccc(NS(=O)(=O)c2cccc3cccnc23)cc1)N1CCN(C2(c3ccccc3)CCCCC2)CC1 [Compound 407, N-(4-(4-(1-phenylcyclohexyl)piperazine-1-carbonyl)phenyl)quinoline-8-sulfonamide] has an AC50 of under 100 nM. Compound O=C(c1ccc(NS(=O)(=O)c2cccc3cccnc23)cc1)N1CCN(Cc2cc(F)cc(F)c2)CC1 [Compound 394, N-(4-(4-(3,5-difluorobenzyl)piperazine-1-carbonyl)phenyl)quinoline-8-sulfonamide] has an AC50 of under 100 nM.

Source: patent publication US8889667B2 (Agios Pharmaceuticals, Inc, priority 2010, dated 2014)
